Laboratory results reported in ChEMBL document CHEMBL1151727, “Citrullination of linear and cyclic altered peptide ligands from myelin basic protein (MBP(87-99)) epitope elicits a Th1 polarized response by T cells isolated from multiple sclerosis patients: implications in triggering disease” (J Med Chem, 2008).
Active and inactive are the calls of the source. Where a SMILES comes first, the peptide text is derived from it. [ ]: non-standard residue; d: D form. Cit = NC(=O)NCCC[C@H](N)C(=O)O

Assays:
Format in all cases: functional, cell-based
PBMC [1] = assay: Decrease in IL10 secretion in PBMC isolated from multiple sclerosis patient at 10 pg/mL per 10^6 cells after 72 hrs by ELISA; conditions: Homo sapiens
PBMC [2] = assay: Induction of IL10 secretion in healthy human PBMC at 10 pg/mL per 10^6 cells after 72 hrs by ELISA
PBMC [3] = assay: Induction of IFN-gamma secretion in healthy human PBMC at 10 pg/mL per 10^6 cells after 72 hrs by ELISA
PBMC [4] = assay: Increase in IFN-gamma secretion in PBMC isolated from multiple sclerosis patient at 10 pg/mL per 10^6 cells after 72 hrs by ELISA; conditions: Homo sapiens
PBMC [5] = assay: Increase in IL2 secretion in PBMC isolated from multiple sclerosis patient at 10 pg/mL per 10^6 cells after 72 hrs by ELISA; conditions: Homo sapiens

Measured: Activity

CC[C@H](C)[C@H](NC(=O)[C@H](CC(N)=O)NC(=O)[C@H](CCCCN)NC(=O)[C@H](Cc1ccccc1)NC(=O)[C@H](Cc1ccccc1)NC(=O)[C@H](Cc1cnc[nH]1)NC(=O)[C@@H](N)C(C)C)C(=O)N[C@H](C(=O)N[C@H](C(=O)N1CCC[C@H]1C(=O)N[C@@H](CCCNC(=N)N)C(=O)N[C@H](C(=O)N1CCC[C@H]1C(=O)O)[C@@H](C)O)[C@@H](C)O)C(C)C
active: PBMC [1] | PBMC [2]

H-VHFFRNIVTARTP-OH
active: PBMC [3] | PBMC [2]

CC[C@H](C)[C@H](NC(=O)[C@H](CC(N)=O)NC(=O)[C@H](CCCNC(N)=O)NC(=O)[C@H](Cc1ccccc1)NC(=O)[C@H](Cc1ccccc1)NC(=O)[C@H](Cc1cnc[nH]1)NC(=O)[C@@H](N)C(C)C)C(=O)N[C@H](C(=O)N[C@H](C(=O)N[C@@H](C)C(=O)N[C@@H](CCCNC(N)=O)C(=O)N[C@H](C(=O)N1CCC[C@H]1C(=O)O)[C@@H](C)O)[C@@H](C)O)C(C)C (H-VHFF[Cit]NIVTA[Cit]TP-OH)
active: all assays above
